For 13 compounds, MIC and EC50 results are on record in patent US20230114728A1 (Venatorx Pharmaceuticals, Inc., priority 2019, published 2023).

Structures are written as SMILES. Values after ≈ are worked out from the molar mass of the structure shown. Read-outs that look alike come from different tables or passages of the source.

In experiment [1] the test system is P. aeruginosa ATCC 35151. The experiment can be described thus: Broth microdilution MIC in CAMHB. The format is cell-based. Particulars: Pseudomonas aeruginosa. In short, it runs like this: (§1)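 Lowest compound concentration with no visible growth after 16-20 h at 37 °C defines MIC. Plates of 2-fold serial dilutions in cation-adjusted Mueller Hinton broth received 2-8×10^5 CFU/mL of exponentially grown cells, per CLSI methods; panel spans reference, hyper-permeable and efflux-pump-deleted strains.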

Experiment [2] concerns E. coli ATCC 25922. Put plainly: Broth microdilution MIC in CAMHB. As to conditions: Escherichia coli. The format is cell-based. In short, it runs like this:
as §1

Experiment [3] concerns E. coli D22. Put plainly: Broth microdilution MIC in CAMHB. Particulars: Escherichia coli. It is filed as cell-based. In short, it runs like this:
as §1

The subject of experiment [4] is K. pneumoniae SI-117 producing VIM-1. Put plainly: Broth microdilution MIC in CAMHB. The format is cell-based. Particulars: Klebsiella pneumoniae, read-out: Minimum Inhibitory Concentration, K. pneumoniae SI-117. In short, it runs like this:
as §1

Experiment [5] has as its target T1, E. coli K12 PBP3 (Escherichia coli, UniProt P0AD68).
T1 construct: made in house
The experiment can be described thus: biochemical. It is filed as binding. The essentials: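 A. baumannii PBP2 (2.5 μM) and PBP3 (0.2 μM) were run in 25 mM Tris pH 8.0 buffer with Tween 20; E. coli PBP3 (1.5 μM) and N. gonorrhoeae PBP2 ([…]) in 50 mM Hepes pH 8.0 buffer.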

Where [6] appears, read: ATCC35151, MHB, hyper-permeable strain, read-out: Minimum Inhibitory Concentration, P. aeruginosa ATCC 35151.
Where [7] appears, read: ATCC25922, E. coli ATCC 25922, MHB, read-out: Minimum Inhibitory Concentration, E. coli 25922.
Setting [8] is: E. coli D22 (hyper-permeable), MHB, read-out: Minimum Inhibitory Concentration, E. coli D22.

T1 sequence (P0AD68 1-577): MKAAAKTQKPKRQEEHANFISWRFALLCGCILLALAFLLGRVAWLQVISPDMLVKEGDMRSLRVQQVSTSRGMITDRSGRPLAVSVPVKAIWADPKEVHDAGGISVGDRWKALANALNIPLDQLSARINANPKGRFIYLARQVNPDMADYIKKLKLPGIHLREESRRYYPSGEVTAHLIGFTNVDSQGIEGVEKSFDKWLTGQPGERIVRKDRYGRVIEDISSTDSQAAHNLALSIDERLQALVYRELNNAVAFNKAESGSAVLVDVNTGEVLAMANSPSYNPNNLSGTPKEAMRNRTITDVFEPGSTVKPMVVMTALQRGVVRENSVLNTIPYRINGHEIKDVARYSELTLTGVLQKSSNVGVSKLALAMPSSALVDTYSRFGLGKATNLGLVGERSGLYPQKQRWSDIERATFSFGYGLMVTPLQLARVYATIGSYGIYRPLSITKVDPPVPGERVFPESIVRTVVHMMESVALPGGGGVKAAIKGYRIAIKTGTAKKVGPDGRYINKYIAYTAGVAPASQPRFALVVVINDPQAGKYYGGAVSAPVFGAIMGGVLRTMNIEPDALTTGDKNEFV

Consider `CCN1CCN(C(=O)N[C@H](C(=O)N[C@H]2Cc3cccc(C(=O)O)c3OB2O)c2nc(Cl)c(C(=O)O)cc2F)C(=O)C1=O` [Example 19, 6-((S)-2-(((R)-8-carboxy-2-hydroxy-3,4-dihydro-2H-benzo[e][1,2]oxaborinin-3-yl)amino)-1-(4-ethyl-2,3-dioxopiperazine-1-carboxamido)-2-oxoethyl)-2-chloro-5-fluoronicotinic acid], for which the MIC in experiment [1] (setting [6]) was 0.5 to 1 µg/mL (≈ 0.825 to 1.65 µM); in experiment [2] (setting [7]), greater than 128 µg/mL; in experiment [3] (setting [8]), 2 to 4 µg/mL (≈ 3.3 to 6.6 µM); in experiment [4], greater than 128 µg/mL. This compound also yielded an EC50 in experiment [5] of less than 30 µM.
As for `CCN1CCN(C(=O)NC(C(=O)N[C@H]2Cc3cccc(C(=O)O)c3OB2O)c2ncc(C(=O)O)cc2F)C(=O)C1=O` (stereo partly drawn) [Example 20, 6-(2-(((R)-8-carboxy-2-hydroxy-3,4-dihydro-2H-benzo[e][1,2]oxaborinin-3-yl)amino)-1-(4-ethyl-2,3-dioxopiperazine-1-carboxamido)-2-oxoethyl)-5-fluoronicotinic acid], the MIC in experiment [1] (setting [6]) is 0.5 to 1 µg/mL (≈ 0.875 to 1.75 µM); in experiment [2] (setting [7]) it was greater than 128 µg/mL; in experiment [3] (setting [8]), 2 to 4 µg/mL (≈ 3.5 to 7 µM); in experiment [4] it was greater than 128 µg/mL. In experiment [5], this compound returned an EC50 of less than 30 µM.
As to `CCN1CCN(C(=O)NC(C(=O)N[C@H]2Cc3cccc(C(=O)O)c3OB2O)c2ccc(O)c(N(S(C)(=O)=O)S(C)(=O)=O)c2)C(=O)C1=O` (stereo partly drawn) [Example 21, (3R)-3-(2-(4-ethyl-2,3-dioxopiperazine-1-carboxamido)-2-(4-hydroxy-3-(N-(methylsulfonyl)methylsulfonamido)phenyl)acetamido)-2-hydroxy-3,4-dihydro-2H-benzo[e][1,2]oxaborinine-8-carboxylic acid], the MIC was 2 to 4 µg/mL (≈ 2.88 to 5.75 µM) in experiment [1] (setting [6]), greater than 128 µg/mL in experiment [2] (setting [7]), 2 to 4 µg/mL (≈ 2.88 to 5.75 µM) in experiment [3] (setting [8]) and greater than 128 µg/mL in experiment [4]. The same compound returned an EC50 in experiment [5] of less than 30 µM.
With `CCN1CCN(C(=O)NC(C(=O)N[C@H]2Cc3cccc(C(=O)O)c3OB2O)c2ccc(O)c(NS(C)(=O)=O)c2)C(=O)C1=O` (stereo partly drawn) [Example 22, (3R)-3-(2-(4-ethyl-2,3-dioxopiperazine-1-carboxamido)-2-(4-hydroxy-3-(methylsulfonamido)phenyl)acetamido)-2-hydroxy-3,4-dihydro-2H-benzo[e][1,2]oxaborinine-8-carboxylic acid], the MIC in experiment [1] (setting [6]) was in the range of 0.5 to 1 µg/mL (≈ 0.81 to 1.62 µM); in experiment [2] (setting [7]) it was 32 to 64 µg/mL (≈ 51.8 to 104 µM); in experiment [3] (setting [8]), 2 to 4 µg/mL (≈ 3.24 to 6.48 µM); in experiment [4], 32 to 64 µg/mL (≈ 51.8 to 104 µM). In experiment [5], this compound gave an EC50 of less than 30 µM.
For `NCCN1CCN(C(=O)NC(C(=O)N[C@H]2Cc3ccc(F)c(C(=O)O)c3OB2O)c2nc(N)sc2F)C(=O)C1=O` (stereo partly drawn) [Example 24, (3R)-3-(2-(2-amino-5-fluorothiazol-4-yl)-2-(4-(2-aminoethyl)-2,3-dioxopiperazine-1-carboxamido)acetamido)-7-fluoro-2-hydroxy-3,4-dihydro-2H-benzo[e][1,2]oxaborinine-8-carboxylic acid], the MIC in experiment [1] (setting [6]) lay in the range of 2 to 4 µg/mL (≈ 3.44 to 6.88 µM); in experiment [2] (setting [7]) it was 32 to 64 µg/mL (≈ 55 to 110 µM); in experiment [3] (setting [8]) it was 8 to 16 µg/mL (≈ 13.8 to 27.5 µM); in experiment [4] it was 32 to 64 µg/mL (≈ 55 to 110 µM). The same compound had a 50% effective concentration (EC50) in experiment [5] of 30 to 500 µM.
For `CCN1CCN(C(=O)NC(C(=O)N[C@H]2Cc3cccc(C(=O)O)c3OB2O)c2ccc(O)c(N)c2)C(=O)C1=O` (stereo partly drawn) [Example 29, (3R)-3-(2-(3-amino-4-hydroxyphenyl)-2-(4-ethyl-2,3-dioxopiperazine-1-carboxamido)acetamido)-2-hydroxy-3,4-dihydro-2H-benzo[e][1,2]oxaborinine-8-carboxylic acid], the MIC in experiment [1] (setting [6]) lay within 0.5 to 1 µg/mL (≈ 0.927 to 1.85 µM); in experiment [2] (setting [7]) it was 32 to 64 µg/mL (≈ 59.3 to 119 µM); in experiment [3] (setting [8]), 2 to 4 µg/mL (≈ 3.71 to 7.42 µM); in experiment [4], 32 to 64 µg/mL (≈ 59.3 to 119 µM). In experiment [5], this compound returned an EC50 of less than 30 µM.
In the case of `CCN1CCN(C(=O)NC(C(=O)N[C@H]2Cc3cccc(C(=O)O)c3OB2O)c2ccc(O)c(NS(N)(=O)=O)c2)C(=O)C1=O` (stereo partly drawn) [Example 30, (3R)-3-(2-(4-ethyl-2,3-dioxopiperazine-1-carboxamido)-2-(4-hydroxy-3-(sulfamoylamino)phenyl)acetamido)-2-hydroxy-3,4-dihydro-2H-benzo[e][1,2]oxaborinine-8-carboxylic acid], the MIC was in the range of 0.5 to 1 µg/mL (≈ 0.809 to 1.62 µM) in experiment [1] (setting [6]), 8 to 16 µg/mL (≈ 12.9 to 25.9 µM) in experiment [2] (setting [7]), 2 to 4 µg/mL (≈ 3.23 to 6.47 µM) in experiment [3] (setting [8]) and 32 to 64 µg/mL (≈ 51.7 to 103 µM) in experiment [4]. In experiment [5], the EC50 was less than 30 µM.
On the same counts, the results for `CCN1CCN(C(=O)NC(C(=O)N[C@H]2Cc3cccc(C(=O)O)c3OB2O)c2ccc(C(=O)O)c(F)c2)C(=O)C1=O` (stereo partly drawn) [Example 31, (3R)-3-(2-(4-carboxy-3-fluorophenyl)-2-(4-ethyl-2,3-dioxopiperazine-1-carboxamido)acetamido)-2-hydroxy-3,4-dihydro-2H-benzo[e][1,2]oxaborinine-8-carboxylic acid] are less than 0.25 µg/mL, 32 to 64 µg/mL (≈ 56.1 to 112 µM), 2 to 4 µg/mL (≈ 3.51 to 7.01 µM), greater than 128 µg/mL and less than 30 µM.
With `N[C@@H](C(=O)N[C@H]1Cc2ccc(F)c(C(=O)O)c2OB1O)c1ccc(OS(=O)(=O)F)cc1` [Example 32, (R)-3-((R)-2-amino-2-(4-((fluorosulfonyl)oxy)phenyl)acetamido)-7-fluoro-2-hydroxy-3,4-dihydro-2H-benzo[e][1,2]oxaborinine-8-carboxylic acid], the MIC in experiment [1] (ATCC35151, read-out: Minimum Inhibitory Concentration, P. aeruginosa ATCC 35151) was greater than 128 µg/mL; in experiment [2] (ATCC25922, read-out: Minimum Inhibitory Concentration, E. coli 25922), greater than 128 µg/mL; in experiment [3] (D22, read-out: Minimum Inhibitory Concentration, E. coli D22), greater than 128 µg/mL; in experiment [4] it was greater than 128 µg/mL. In addition, the EC50 in experiment [5] was greater than 500 µM.
Regarding `NCCCN1CCN(C(=O)NC(C(=O)N[C@H]2Cc3cccc(C(=O)O)c3OB2O)c2ccc(C(=O)O)cc2)C(=O)C1=O` (stereo partly drawn) [Example 39, (3R)-3-(2-(4-(3-aminopropyl)-2,3-dioxopiperazine-1-carboxamido)-2-(4-carboxyphenyl)acetamido)-2-hydroxy-3,4-dihydro-2H-benzo[e][1,2]oxaborinine-8-carboxylic acid], the MIC in experiment [1] (setting [6]) was less than 0.25 µg/mL; in experiment [2] (setting [7]), 8 to 16 µg/mL (≈ 13.8 to 27.5 µM); in experiment [3] (setting [8]) it was 2 to 4 µg/mL (≈ 3.44 to 6.88 µM); in experiment [4], greater than 128 µg/mL. Moreover, the EC50 in experiment [5] was less than 30 µM.
On to `NS(=O)(=O)NC(C(=O)N[C@H]1Cc2ccc(F)c(C(=O)O)c2OB1O)c1ncc(O)cc1F` (stereo partly drawn) [Example 43, (3R)-7-fluoro-3-(2-(3-fluoro-5-hydroxypyridin-2-yl)-2-(sulfamoylamino)acetamido)-2-hydroxy-3,4-dihydro-2H-benzo[e][1,2]oxaborinine-8-carboxylic acid], for which the MIC is 2 to 4 µg/mL (≈ 4.24 to 8.47 µM) in experiment [1] (setting [6]), greater than 128 µg/mL in experiment [2] (setting [7]), greater than 128 µg/mL in experiment [3] (setting [8]) and greater than 128 µg/mL in experiment [4]. The compound further had an EC50 in experiment [5] greater than 500 µM.
As to `NS(=O)(=O)NC(C(=O)N[C@H]1Cc2cccc(C(=O)O)c2OB1O)c1ccc(C(=O)O)c(F)c1` (stereo partly drawn) [Example 44, (3R)-3-(2-(4-carboxy-3-fluorophenyl)-2-(sulfamoylamino)acetamido)-2-hydroxy-3,4-dihydro-2H-benzo[e][1,2]oxaborinine-8-carboxylic acid], the MIC was 32 to 64 µg/mL (≈ 66.5 to 133 µM) in experiment [1] (setting [6]), greater than 128 µg/mL in experiment [2] (setting [7]), greater than 128 µg/mL in experiment [3] (setting [8]) and greater than 128 µg/mL in experiment [4]. The compound further returned an EC50 in experiment [5] greater than 500 µM.
As to `CCN1CCN(C(=O)NC(C(=O)N[C@H]2Cc3cccc(C(=O)O)c3OB2O)c2ccc(C(N)=O)c(O)c2)C(=O)C1=O` (stereo partly drawn) [Example 45, (3R)-3-(2-(4-carbamoyl-3-hydroxyphenyl)-2-(4-ethyl-2,3-dioxopiperazine-1-carboxamido)acetamido)-2-hydroxy-3,4-dihydro-2H-benzo[e][1,2]oxaborinine-8-carboxylic acid], the MIC in experiment [1] (setting [6]) is less than 0.25 µg/mL; in experiment [2] (setting [7]), 32 to 64 µg/mL (≈ 56.4 to 113 µM); in experiment [3] (setting [8]), less than 0.25 µg/mL; in experiment [4] it was greater than 128 µg/mL. This compound also yielded an EC50 in experiment [5] of less than 30 µM.
